Measured values published in patent EP1611112B1, “ISOXAZOLE COMPOUNDS AS INHIBITORS OF HEAT SHOCK PROTEINS” (Vernalis (Cambridge) Limited, priority 2003, dated 2004).

Target: T1, human full-length HSP90 (Homo sapiens, UniProt P08238)
T1 construct: E. coli expressed human full-length HSP90 protein; made in house; host or cells: E. coli
Assay: Fluorescence Polarisation Assay (displacement of fluorescein-labelled probe RBT0045864-FAM)
Format: binding
Details: Fluorescence Polarisation Assay, activity range
From the text: A Fluorescence Polarization_assay was also employed for the evaluation of some of the compounds of the Examples:
Fluorescence polarization {also known as fluorescence anisotropy} measures the rotation of a fluorescing species in solution, where the larger molecule the more polarized the fluorescence emission.
When the fluorophore is excited with polarized light, the emitted light is also polarized. The molecular size is proportional to the polarization of the fluorescence emission.
Test compound is added to the assay plate, left to equilibrate and the anisotropy measured again. Any change in anisotropy is due to competitive binding of compound to HSP90, thereby releasing probe.
Stored at room temperature. • 3) BSA (bovine serum albumen) 10 mg/ml (New England Biolabs # B9001S) • 4) 20 mM probe in 100 % DMSO stock concentration. Stored in the dark at RT. Working concentration is 200 nM diluted in AR water and stored at 4 °C.
1) Add 100µl 1x buffer to wells 11A and 12A (=FP BLNK) 2) Prepare assay mix - all reagents are kept on ice with a lid on the bucket as the probe is light-sensitive.
This gives 2.5 mM {50x} stock cpd - assuming cpds 20 mM. • 4) Repeat for wells A2 to A10. Control in columns 11 and 12. • 5) Transfer 5 µl from row A to row B- not column 12. Mix well. • 6) Transfer 5 µl from row B to row C. […] Add 2 µl of 100mM standard cpd to wells B12 - H12 {is positive control } • 13)The Z' factor is calculated from zero controls and positive wells.

T1 sequence (P08238 whole entry): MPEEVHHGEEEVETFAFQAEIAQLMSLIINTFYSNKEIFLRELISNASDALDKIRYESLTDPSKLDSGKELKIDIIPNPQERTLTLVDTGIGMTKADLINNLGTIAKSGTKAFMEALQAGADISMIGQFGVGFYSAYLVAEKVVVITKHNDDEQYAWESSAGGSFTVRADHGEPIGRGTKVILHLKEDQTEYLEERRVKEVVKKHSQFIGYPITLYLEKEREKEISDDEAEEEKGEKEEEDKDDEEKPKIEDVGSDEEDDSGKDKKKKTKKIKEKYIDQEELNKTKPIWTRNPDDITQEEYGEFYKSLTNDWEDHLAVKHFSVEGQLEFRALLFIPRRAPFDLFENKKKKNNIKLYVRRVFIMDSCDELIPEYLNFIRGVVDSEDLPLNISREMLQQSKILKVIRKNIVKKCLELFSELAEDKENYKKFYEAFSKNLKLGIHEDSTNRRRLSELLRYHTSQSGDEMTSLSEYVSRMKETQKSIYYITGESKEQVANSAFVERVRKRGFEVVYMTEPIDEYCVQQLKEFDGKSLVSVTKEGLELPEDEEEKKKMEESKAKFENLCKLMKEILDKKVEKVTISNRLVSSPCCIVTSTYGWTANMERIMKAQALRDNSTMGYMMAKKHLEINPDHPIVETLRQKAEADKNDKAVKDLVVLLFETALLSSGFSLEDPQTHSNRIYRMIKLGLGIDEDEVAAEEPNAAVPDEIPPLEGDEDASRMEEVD

| Structure (SMILES) | IC50 [µM] |
| --- | --- |
| COc1ccc(-c2c(-c3cc(Br)c(O)cc3O)noc2C)cc1 [Example 76, 4-Bromo-6-[4-(4-methoxy-phenyl)-5-methyl-isoxazol-3-yl]-benzene-1,3-diol] | < 10 |
| Cc1nc(-c2c(-c3ccc(O)cc3O)noc2C(F)(F)F)cs1 [Example 76A] | > 10 |
| CCNC(=O)c1noc(-c2cc(C(C)(C)C)c(O)cc2O)c1-c1ccc(CN2CCOCC2)cc1 [Example 77, 5-(5-tert-Butyl-2,4-dihydroxy-phenyl)-4-(4-morpholin-4-ylmethyl-phenyl)-isoxazole-3-carboxylic acid ethylamide] | < 10 |

Same assay, conditions: table names no assay; parent examples tested in fluorescence polarization assay

| Structure (SMILES) | IC50 [µM] |
| --- | --- |
| CCNC(=O)c1noc(-c2cc(-c3ccccc3F)c(O)cc2O)c1-c1ccc(CN2CCN(C)CC2)cc1 [Example 75g] | < 10 |
| CCNC(=O)c1noc(-c2cc(CCc3cccc(F)c3)c(O)cc2O)c1-c1ccc(CN(CC)CC)cc1 [Example 75h] | < 10 |
| CCNC(=O)c1noc(-c2cc(-c3ccccc3C)c(O)cc2O)c1-c1ccc(CN2CCCCC2)cc1 [Example 75m] | < 10 |
| CCNC(=O)c1noc(-c2cc(-c3ccccc3)c(O)cc2O)c1-c1ccc(CN(CC)CC)cc1 [Example 75p] | < 10 |
| CCNC(=O)c1noc(-c2cc(-c3ccc(F)cc3)c(O)cc2O)c1-c1ccc(CN2CCN(C)CC2)cc1 [Example 75q] | < 10 |
| CCNC(=O)c1noc(-c2cc(-c3ccc(F)cc3)c(O)cc2O)c1-c1ccc(CN(CC)CC)cc1 [Example 75r] | < 10 |
| CCNC(=O)c1noc(-c2cc(-c3ccccc3C)c(O)cc2O)c1-c1ccc(CN2CCN(C)CC2)cc1 [Example 75s] | < 10 |
| CCNC(=O)c1noc(-c2cc(-c3ccccc3C)c(O)cc2O)c1-c1ccc(CN(CC)CC)cc1 [Example 75t] | < 10 |
| CCNC(=O)c1noc(-c2cc(-c3c(C)noc3C)c(O)cc2O)c1-c1ccc(CN2CCCCC2)cc1 [Example 75v] | < 10 |
| CCNC(=O)c1onc(-c2cc(Cl)c(O)cc2O)c1-c1ccc(OC)cc1 [Example 76B] | < 10 |
| CCNC(=O)c1onc(-c2cc(Cl)c(O)cc2O)c1-c1ccc(CN2CCOCC2)cc1 [Example 76C] | < 10 |
| CCNC(=O)c1noc(-c2cc(C(C)(C)C)c(O)cc2O)c1-c1ccc(CN2CCOCC2)cc1 [Example 77a] | < 10 |
| CCNC(=O)c1noc(-c2cc(C(C)(C)C)c(O)cc2O)c1-c1ccc(CN(CC)CC)cc1 [Example 77b] | < 10 |
| CCNC(=O)c1noc(-c2cc(C(C)(C)C)c(O)cc2O)c1-c1ccc(CN2CCCCC2)cc1 [Example 77c] | < 10 |
| CCNC(=O)c1noc(-c2cc(C(C)(C)C)c(O)cc2O)c1-c1ccc(CN2CCN(C)CC2)cc1 [Example 77d] | < 10 |
| CCNC(=O)c1noc(-c2cc(C(C)(C)C)c(O)cc2O)c1-c1ccc(F)cc1 [Example 77e] | < 10 |
| CCNC(=O)c1noc(-c2cc(C(C)(C)C)c(O)cc2O)c1-c1ccc(OC)cc1 [Example 77f] | < 10 |
| CC(C)NC(=O)c1noc(-c2cc(C(C)C)c(O)cc2O)c1-c1ccc(CN2CCC(F)(F)CC2)cc1 [Example 78aa] | < 10 |
| CCNC(=O)c1noc(-c2cc(C(C)C)c(O)cc2O)c1-c1ccc(CNCC(F)(F)F)cc1 [Example 78ab] | < 10 |
| CCNC(=O)c1noc(-c2cc(C(C)C)c(O)cc2O)c1-c1ccc(CN2CCC(F)(F)CC2)cc1 [Example 78ac] | < 10 |
| CCNC(=O)c1noc(-c2cc(C(C)C)c(O)cc2O)c1-c1ccc(CNCC(=O)NC(C)C)cc1 [Example 78ad] | < 10 |
| CCNC(=O)c1noc(-c2cc(C(C)C)c(O)cc2O)c1-c1ccc(CN2CCC(N)CC2)cc1 [Example 78af] | < 10 |
| CCNC(=O)CNCc1ccc(-c2c(C(=O)NCC)noc2-c2cc(C(C)C)c(O)cc2O)cc1 [Example 78ah] | < 10 |
| CCNC(=O)c1noc(-c2cc(C(C)C)c(O)cc2O)c1-c1ccc(CN(CC)CC)cc1 [Example 78b] | < 10 |
| CCNC(=O)c1noc(-c2cc(C(C)C)c(O)cc2O)c1-c1ccc(CN2CCN(C)CC2)cc1 [Example 78c] | < 10 |
